Each block holds one compound with its values, some of them ahead of it. The source made the active and inactive calls. No cut-off for these calls is given here.
Tests used:
[1] = target: Sigma intracellular receptor 2 (Homo sapiens, UniProt Q5BJF2); experiment: Inhibition of sigma receptor 2 (unknown origin)
Histamine H1 receptor = Histamine H1 receptor (Homo sapiens, UniProt P35367); experiment: Inhibition of histamine H1 receptor (unknown origin)
Mus musculus [2] = experiment: Induction of hypothermia in C57BL/6J mouse assessed as body temperature at […], icv measured after 10 hrs post dose; format: functional, organism-based
Adenosine receptor A2a [3] = target: T1, Adenosine receptor A2a (Homo sapiens, UniProt P29274); experiment: Displacement of [3H]2-[p-(2-carboxyethyl)phenylethylamino]-5-N-ethylcarboxamidoadenosine from human A2A adenosine receptor expressed in HEK293 cell membranes at 10 uM after 60 mins by scintillation proximity assay relative to adenosine 5-N-ethyluronamide
[4] = Fraction unbound in mouse plasma at 10 uM; format: ADME, cell-free
[5] = Inhibition of rat benzodiazepine receptor
Mus musculus [6] = experiment: Induction of hypothermia in C57BL/6J mouse assessed as activity counts at 3 mg/kg, ip measured at 60 mins post dose (reference value: 15.5 +/- 5.5); format: functional
[7] = Fraction unbound in rat plasma at 10 uM; format: ADME, cell-free
[8] = target: T2, Adenosine receptor A3 (Mus musculus) (UniProt Q61618); experiment: Agonist activity at mouse A3AR adenosine receptor at 10 uM after 60 mins by [35S]GTPgammaS binding assay relative to (2S,3S,4R,5R)-5-(6-amino-9H-purin-9-yl)-N-ethyl-3,4-dihydroxytetrahydrofuran-2-carboxamide; format: functional
T2 sequence (whole entry): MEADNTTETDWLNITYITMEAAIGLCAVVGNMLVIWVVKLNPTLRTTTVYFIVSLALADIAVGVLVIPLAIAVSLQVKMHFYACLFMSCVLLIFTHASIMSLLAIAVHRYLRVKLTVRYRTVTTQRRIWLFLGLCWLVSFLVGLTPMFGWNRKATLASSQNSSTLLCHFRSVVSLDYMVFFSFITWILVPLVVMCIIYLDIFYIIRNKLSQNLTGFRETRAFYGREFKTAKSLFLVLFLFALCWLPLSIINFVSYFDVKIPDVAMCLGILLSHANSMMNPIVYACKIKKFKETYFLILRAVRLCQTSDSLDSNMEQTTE

[9] = target: T3, Adenosine receptor A3 (Homo sapiens) (UniProt P0DMS8); experiment: Displacement of [125I]N6-(4-amino-3-iodobenzyl)adenosine-5-N-methyluronamide from human A3A adenosine receptor expressed in CHO cell membranes at 10 uM after 60 mins by scintillation proximity assay relative to adenosine 5-N-ethyluronamide
T3 sequence (whole entry): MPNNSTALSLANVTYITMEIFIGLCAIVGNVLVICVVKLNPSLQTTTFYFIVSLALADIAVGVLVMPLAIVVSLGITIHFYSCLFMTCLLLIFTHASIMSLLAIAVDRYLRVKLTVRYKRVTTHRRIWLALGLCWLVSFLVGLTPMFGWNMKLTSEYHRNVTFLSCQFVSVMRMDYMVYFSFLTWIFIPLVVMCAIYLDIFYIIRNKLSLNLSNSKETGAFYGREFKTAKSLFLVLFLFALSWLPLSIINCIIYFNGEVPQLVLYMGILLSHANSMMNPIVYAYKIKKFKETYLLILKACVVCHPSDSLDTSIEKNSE

Mus musculus [10] = experiment: Induction of hypothermia in C57BL/6J mouse assessed as body temperature at […], icv measured up to 120 mins post dose; format: functional, organism-based
Mus musculus [11] = species: Mus musculus; experiment: Selectivity index, ratio of Ki for mouse A3A adenosine receptor to Ki for mouse A1A adenosine receptor expressed in CHO cell membranes after 60 mins by scintillation proximity assay
Mus musculus [12] = experiment: Induction of hypothermia in C57BL/6J mouse assessed as body temperature at 3 mg/kg, ip measured at 60 mins post dose (reference value: 36.3 +/- 0.8 degC); format: functional
[13] = Fraction unbound in human plasma at 10 uM; format: ADME, cell-free
[14] = target: T4, Adenosine receptor A1 (Mus musculus) (UniProt Q60612); experiment: Agonist activity at mouse A1A adenosine receptor at 10 uM after 60 mins by [35S]GTPgammaS binding assay relative to (2S,3S,4R,5R)-5-(6-amino-9H-purin-9-yl)-N-ethyl-3,4-dihydroxytetrahydrofuran-2-carboxamide; format: functional
T4 sequence (whole entry): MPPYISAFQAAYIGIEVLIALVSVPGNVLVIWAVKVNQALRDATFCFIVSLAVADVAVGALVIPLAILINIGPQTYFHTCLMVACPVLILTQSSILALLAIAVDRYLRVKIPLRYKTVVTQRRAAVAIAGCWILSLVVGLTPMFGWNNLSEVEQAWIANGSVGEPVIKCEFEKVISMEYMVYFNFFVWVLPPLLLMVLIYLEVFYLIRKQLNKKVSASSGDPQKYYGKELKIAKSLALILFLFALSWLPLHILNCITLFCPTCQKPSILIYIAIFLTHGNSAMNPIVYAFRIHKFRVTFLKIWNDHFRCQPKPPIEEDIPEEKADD

Adenosine receptor A1 [15] = target: T5, Adenosine receptor A1 (Homo sapiens, UniProt P30542); experiment: Agonist activity at human A1A adenosine receptor expressed in HEK cells assessed as inhibition of forskolin-stimulated cAMP production after 60 mins; format: functional, cell-based
T5 sequence (P30542 whole entry): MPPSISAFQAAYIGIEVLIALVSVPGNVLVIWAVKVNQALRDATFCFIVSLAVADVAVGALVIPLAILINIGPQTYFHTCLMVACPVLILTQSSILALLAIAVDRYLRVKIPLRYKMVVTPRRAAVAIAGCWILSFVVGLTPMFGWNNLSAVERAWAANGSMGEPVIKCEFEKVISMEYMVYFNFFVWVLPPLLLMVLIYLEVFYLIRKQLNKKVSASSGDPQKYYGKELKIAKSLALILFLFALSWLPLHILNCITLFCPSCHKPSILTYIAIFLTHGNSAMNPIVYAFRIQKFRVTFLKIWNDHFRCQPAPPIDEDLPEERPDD

Adenosine receptor A1 [16] = target: T5, Adenosine receptor A1; experiment: Agonist activity at human A1A adenosine receptor expressed in CHOKI cells assessed as induction of beta-arrestin2 recruitment after 60 mins; format: cell-based
[17] = target: T2, Adenosine receptor A3 (Mus musculus); experiment: Displacement of [125I]N6-(4-amino-3-iodobenzyl)adenosine-5-N-methyluronamide from mouse A3A adenosine receptor expressed in CHO cell membranes at 10 uM after 60 mins by scintillation proximity assay relative to adenosine 5-N-ethyluronamide
Mus musculus [18] = experiment: Induction of hypothermia in C57BL/6J mouse assessed as activity counts at 10 mg/kg, ip measured at 60 mins post dose (reference value: 15.5 +/- 5.5); format: functional
Adenosine receptor A1 [19] = target: T5, Adenosine receptor A1; experiment: Agonist activity at human A1A adenosine receptor expressed in HEK cell membranes incubated for 60 mins by [35S]GTPgammaS binding assay; format: functional
Mus musculus [20] = experiment: Induction of hypothermia in C57BL/6J mouse assessed as body temperature at 10 mg/kg, ip measured at 60 mins post dose (reference value: 36.3 +/- 0.8 degC); format: functional
[21] = target: 5-hydroxytryptamine receptor 7 (Homo sapiens, UniProt P34969); experiment: Inhibition of 5HT7R (unknown origin)
Adenosine receptor A3 [22] = target: T6, Adenosine receptor A3 (Mus musculus, UniProt Q61618); experiment: Displacement of [125I]N6-(4-amino-3-iodobenzyl)adenosine-5-N-methyluronamide from mouse A3A adenosine receptor expressed in CHO cell membranes after 60 mins by scintillation proximity assay
T6 sequence (Q61618 whole entry): T2 sequence (whole entry)

Adenosine receptor A2a [23] = target: T1, Adenosine receptor A2a; experiment: Displacement of [3H]2-[p-(2-carboxyethyl)phenylethylamino]-5-N-ethylcarboxamidoadenosine from human A2A adenosine receptor expressed in HEK293 cell membranes after 60 mins by scintillation proximity assay
[24] = target: Sigma non-opioid intracellular receptor 1 (Homo sapiens, UniProt Q99720); experiment: Inhibition of sigma receptor 1 (unknown origin)
Adenosine receptor A3 [25] = target: T7, Adenosine receptor A3 (Homo sapiens, UniProt P0DMS8); experiment: Displacement of [125I]N6-(4-amino-3-iodobenzyl)adenosine-5-N-methyluronamide from human A3A adenosine receptor expressed in CHO cell membranes after 60 mins by scintillation proximity assay
T7 sequence (P0DMS8 whole entry): T3 sequence (whole entry)

Mus musculus [26] = experiment: Induction of hypothermia in C57BL/6J mouse assessed as body temperature at 1 mg/kg, ip measured at 60 mins post dose (reference value: 36.3 +/- 0.8 degC); format: functional
Translocator protein = Translocator protein (Homo sapiens, UniProt P30536); experiment: Inhibition of TSPO (unknown origin) at 10 uM relative to control
Adenosine receptor A1 [27] = target: T8, Adenosine receptor A1 (Mus musculus, UniProt Q60612); experiment: Displacement of [3H]N6-R-phenylisopropyladenosine from mouse A1A adenosine receptor expressed in CHO cell membranes after 60 mins by scintillation proximity assay
T8 sequence (Q60612 whole entry): T4 sequence (whole entry)

[28] = target: 5-hydroxytryptamine receptor 2B (Homo sapiens, UniProt P41595); experiment: Inhibition of 5HT2B (unknown origin)
Mus musculus [29] = experiment: Induction of hypothermia in A1AR knock out C57BL/6J mouse assessed as effect on body temperature at 3 mg/kg, ip measured at 60 mins post dose; format: functional, organism-based
Mus musculus [30] = experiment: Induction of hypothermia in A1AR/A3AR knock out C57BL/6J mouse assessed as effect on body temperature at 3 mg/kg, ip measured at 60 mins post dose; format: functional, organism-based
Adenosine receptor A1 [31] = target: T5, Adenosine receptor A1; experiment: Displacement of [3H]N6-R-phenylisopropyladenosine from human A1A adenosine receptor expressed in CHO cell membranes after 60 mins by scintillation proximity assay
Mus musculus [32] = experiment: Induction of hypothermia in A3AR knock out C57BL/6J mouse assessed as effect on body temperature at 3 mg/kg, ip measured at 60 mins post dose; format: functional, organism-based
[33] = target: Adenosine receptor A2a (Mus musculus) (UniProt Q60613); experiment: Displacement of [3H]2-[p-(2-carboxyethyl)phenylethylamino]-5-N-ethylcarboxamidoadenosine from mouse A2A adenosine receptor expressed in HEK293 cell membranes at 10 uM after 60 mins by scintillation proximity assay relative to adenosine 5-N-ethyluronamide
[34] = target: Sodium-dependent noradrenaline transporter (Homo sapiens, UniProt P23975); experiment: Inhibition of NET (unknown origin)
[35] = target: 5-hydroxytryptamine receptor 5A (Homo sapiens, UniProt P47898); experiment: Inhibition of 5HT5A (unknown origin)
Histamine H2 receptor = Histamine H2 receptor (Homo sapiens, UniProt P25021); experiment: Inhibition of histamine H2 receptor (unknown origin)
[36] = target: T9, Adenosine receptor A1 (Homo sapiens) (UniProt P30542); experiment: Displacement of [3H]N6-R-phenylisopropyladenosine from human A1A adenosine receptor expressed in CHO cell membranes at 10 uM after 60 mins by scintillation proximity assay relative to adenosine 5-N-ethyluronamide
T9 sequence (whole entry): T5 sequence (P30542 whole entry)

T1 sequence (P29274 whole entry): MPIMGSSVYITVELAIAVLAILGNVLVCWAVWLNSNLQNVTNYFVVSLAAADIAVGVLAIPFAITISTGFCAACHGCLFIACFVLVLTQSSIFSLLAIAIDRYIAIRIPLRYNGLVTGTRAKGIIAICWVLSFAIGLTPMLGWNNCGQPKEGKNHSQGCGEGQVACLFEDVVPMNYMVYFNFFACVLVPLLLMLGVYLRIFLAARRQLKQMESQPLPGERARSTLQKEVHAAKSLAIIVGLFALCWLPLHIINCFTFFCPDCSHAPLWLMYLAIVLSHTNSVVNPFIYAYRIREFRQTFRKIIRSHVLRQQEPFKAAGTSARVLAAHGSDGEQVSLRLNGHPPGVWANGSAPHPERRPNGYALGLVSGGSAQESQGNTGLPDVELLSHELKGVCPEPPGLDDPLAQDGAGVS
Sequence of Sigma intracellular receptor 2 (Q5BJF2 whole entry): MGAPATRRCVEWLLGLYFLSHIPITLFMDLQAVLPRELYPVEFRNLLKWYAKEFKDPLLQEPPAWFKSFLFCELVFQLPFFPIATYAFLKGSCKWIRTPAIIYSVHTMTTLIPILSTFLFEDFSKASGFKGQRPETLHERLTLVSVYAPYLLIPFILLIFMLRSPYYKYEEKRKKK
Sequence of 5-hydroxytryptamine receptor 2B (P41595 whole entry): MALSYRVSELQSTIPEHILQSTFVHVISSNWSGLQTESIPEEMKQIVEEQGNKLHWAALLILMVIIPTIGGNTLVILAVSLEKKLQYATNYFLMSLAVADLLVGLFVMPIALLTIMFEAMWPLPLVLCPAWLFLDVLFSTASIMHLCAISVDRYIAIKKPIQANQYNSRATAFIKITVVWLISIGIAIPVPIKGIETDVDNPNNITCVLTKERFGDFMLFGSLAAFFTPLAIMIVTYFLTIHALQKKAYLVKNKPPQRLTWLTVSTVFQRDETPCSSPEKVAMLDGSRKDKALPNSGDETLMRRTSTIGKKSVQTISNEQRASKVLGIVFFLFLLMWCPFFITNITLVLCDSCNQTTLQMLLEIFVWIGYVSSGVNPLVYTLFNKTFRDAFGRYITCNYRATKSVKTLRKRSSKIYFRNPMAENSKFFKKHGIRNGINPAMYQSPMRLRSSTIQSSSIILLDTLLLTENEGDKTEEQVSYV
Sequence of Sodium-dependent noradrenaline transporter (P23975 whole entry): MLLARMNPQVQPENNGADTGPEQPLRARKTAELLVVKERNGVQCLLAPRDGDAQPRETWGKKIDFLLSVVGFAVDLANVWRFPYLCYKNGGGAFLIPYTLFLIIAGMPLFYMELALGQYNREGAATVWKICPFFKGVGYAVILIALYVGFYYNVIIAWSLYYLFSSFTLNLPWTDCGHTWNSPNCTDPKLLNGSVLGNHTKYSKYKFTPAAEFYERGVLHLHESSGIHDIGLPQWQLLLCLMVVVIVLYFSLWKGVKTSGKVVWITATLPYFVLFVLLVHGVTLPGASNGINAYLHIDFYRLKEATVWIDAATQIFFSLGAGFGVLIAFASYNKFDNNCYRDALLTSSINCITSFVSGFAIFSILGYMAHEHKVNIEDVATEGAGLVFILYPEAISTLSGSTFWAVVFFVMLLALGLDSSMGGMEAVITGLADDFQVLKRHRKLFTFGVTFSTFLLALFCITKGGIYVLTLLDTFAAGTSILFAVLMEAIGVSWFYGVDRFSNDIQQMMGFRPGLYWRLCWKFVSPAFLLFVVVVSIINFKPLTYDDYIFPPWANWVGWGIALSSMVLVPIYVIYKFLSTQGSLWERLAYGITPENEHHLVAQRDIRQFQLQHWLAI
Sequence of Histamine H1 receptor (P35367 whole entry): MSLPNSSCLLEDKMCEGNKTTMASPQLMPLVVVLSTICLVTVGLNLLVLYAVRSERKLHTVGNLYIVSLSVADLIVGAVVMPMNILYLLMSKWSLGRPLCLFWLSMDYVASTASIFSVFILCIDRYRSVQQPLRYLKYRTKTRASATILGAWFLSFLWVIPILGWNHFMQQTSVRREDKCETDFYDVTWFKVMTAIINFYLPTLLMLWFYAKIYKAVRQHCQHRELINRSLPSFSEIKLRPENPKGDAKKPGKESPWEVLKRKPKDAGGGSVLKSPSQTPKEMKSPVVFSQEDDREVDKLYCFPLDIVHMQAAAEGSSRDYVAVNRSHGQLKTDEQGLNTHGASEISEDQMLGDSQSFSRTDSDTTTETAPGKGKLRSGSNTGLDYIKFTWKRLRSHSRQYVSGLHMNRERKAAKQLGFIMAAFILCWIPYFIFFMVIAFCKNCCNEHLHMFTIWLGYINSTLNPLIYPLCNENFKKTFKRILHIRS
Sequence of Histamine H2 receptor (P25021 whole entry): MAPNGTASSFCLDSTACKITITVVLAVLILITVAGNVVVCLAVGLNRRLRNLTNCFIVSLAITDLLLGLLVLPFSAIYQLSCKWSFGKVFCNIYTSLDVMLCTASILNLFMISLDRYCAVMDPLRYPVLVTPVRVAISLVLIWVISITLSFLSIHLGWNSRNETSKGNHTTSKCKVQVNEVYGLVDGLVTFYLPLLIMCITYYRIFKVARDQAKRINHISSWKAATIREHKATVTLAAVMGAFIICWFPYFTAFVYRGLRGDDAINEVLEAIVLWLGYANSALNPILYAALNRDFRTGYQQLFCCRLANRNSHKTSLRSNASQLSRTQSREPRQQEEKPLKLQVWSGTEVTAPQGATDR
Sequence of Adenosine receptor A2a (Mus musculus) (Q60613 whole entry): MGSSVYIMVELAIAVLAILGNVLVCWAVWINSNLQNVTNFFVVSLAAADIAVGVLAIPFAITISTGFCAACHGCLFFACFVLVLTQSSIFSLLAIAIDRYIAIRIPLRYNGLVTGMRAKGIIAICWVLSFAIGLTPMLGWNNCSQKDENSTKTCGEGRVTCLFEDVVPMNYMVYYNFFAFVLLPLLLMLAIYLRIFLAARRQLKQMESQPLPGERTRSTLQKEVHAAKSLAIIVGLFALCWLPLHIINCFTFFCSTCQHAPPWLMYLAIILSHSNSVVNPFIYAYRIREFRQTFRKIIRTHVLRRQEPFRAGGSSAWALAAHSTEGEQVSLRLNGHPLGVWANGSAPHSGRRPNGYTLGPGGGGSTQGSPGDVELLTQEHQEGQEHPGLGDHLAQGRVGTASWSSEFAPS
Sequence of 5-hydroxytryptamine receptor 5A (P47898 whole entry): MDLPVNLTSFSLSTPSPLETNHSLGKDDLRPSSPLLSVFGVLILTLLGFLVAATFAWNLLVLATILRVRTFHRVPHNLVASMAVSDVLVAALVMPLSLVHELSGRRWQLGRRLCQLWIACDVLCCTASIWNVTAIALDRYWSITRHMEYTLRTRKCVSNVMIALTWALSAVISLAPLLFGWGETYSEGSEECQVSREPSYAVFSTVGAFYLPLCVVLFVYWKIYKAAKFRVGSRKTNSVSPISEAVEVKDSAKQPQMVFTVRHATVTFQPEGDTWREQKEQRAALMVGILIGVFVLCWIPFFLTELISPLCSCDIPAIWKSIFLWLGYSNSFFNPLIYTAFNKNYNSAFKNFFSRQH
Sequence of Translocator protein (P30536 whole entry): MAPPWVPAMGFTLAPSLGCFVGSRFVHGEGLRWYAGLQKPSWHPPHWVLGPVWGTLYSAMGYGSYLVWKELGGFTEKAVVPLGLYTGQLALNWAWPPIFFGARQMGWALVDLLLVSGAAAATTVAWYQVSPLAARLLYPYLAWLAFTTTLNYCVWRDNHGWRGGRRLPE
Sequence of 5-hydroxytryptamine receptor 7 (P34969 whole entry): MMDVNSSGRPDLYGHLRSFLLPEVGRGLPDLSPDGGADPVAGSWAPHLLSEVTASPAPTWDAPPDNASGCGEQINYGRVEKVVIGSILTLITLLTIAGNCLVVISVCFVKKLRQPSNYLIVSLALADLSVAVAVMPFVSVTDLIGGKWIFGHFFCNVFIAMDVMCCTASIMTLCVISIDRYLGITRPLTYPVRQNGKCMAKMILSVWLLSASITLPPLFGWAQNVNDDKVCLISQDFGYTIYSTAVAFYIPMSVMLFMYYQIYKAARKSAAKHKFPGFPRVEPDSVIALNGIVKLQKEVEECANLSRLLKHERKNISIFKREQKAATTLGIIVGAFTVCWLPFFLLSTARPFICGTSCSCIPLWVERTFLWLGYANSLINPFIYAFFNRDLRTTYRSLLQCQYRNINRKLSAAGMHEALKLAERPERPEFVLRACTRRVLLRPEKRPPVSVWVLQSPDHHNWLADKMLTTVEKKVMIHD
Sequence of Sigma non-opioid intracellular receptor 1 (Q99720 whole entry): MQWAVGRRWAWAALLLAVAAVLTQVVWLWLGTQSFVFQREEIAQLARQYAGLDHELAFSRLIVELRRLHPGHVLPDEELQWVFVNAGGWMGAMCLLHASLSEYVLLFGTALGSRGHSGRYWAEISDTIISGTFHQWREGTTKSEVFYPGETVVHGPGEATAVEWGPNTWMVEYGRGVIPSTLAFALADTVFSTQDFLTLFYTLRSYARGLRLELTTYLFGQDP

Compound: Nc1ncnc2c1ncn2[C@@H]1O[C@H](C(=O)NC2CC2)[C@@H](O)[C@H]1O
- Ki [1]: 4350 nM
- Ki (Histamine H1 receptor): 7880 nM

- inhibition (Adenosine receptor A2a [3]): 34%
- Fu [4]: 27.5%
- Ki [5]: 4080 nM
- Ki [1]: 753 nM
- Fu [7]: 17.8%
- Emax [8]: 92%
- inhibition [9]: 51%
- Fu [13]: 14.6%
- Emax [14]: 97%
Compound: OC[C@@]12C[C@@H]1[C@@H](n1cnc3c(NC(C4CCC4)C4CCC4)ncnc31)[C@H](O)[C@@H]2O
- Activity (Mus musculus [2]): Active
- Activity (Mus musculus [6]): 18.1
- Activity (Mus musculus [10]): Active
- Ratio Ki (Mus musculus [11]): 1730
- T (Mus musculus [12]): 36.2 °C

Compound: NC(=O)c1ncn([C@H]2[C@H](O)[C@H](O)[C@]3(CO)C[C@H]23)n1
- inhibition (Adenosine receptor A2a [3]): 11%
- Fu [4]: > 80%
- Ki [1]: 2090 nM
- Fu [7]: > 80%
- Emax [8]: 31%
- IC50 (Adenosine receptor A1 [15]): 87 nM
- EC50 (Adenosine receptor A1 [16]): 2460 nM
- inhibition [9]: 41%
- inhibition [17]: 47%
- Ratio Ki (Mus musculus [11]): 400
- Activity (Mus musculus [18]): 19.1
- EC50 (Adenosine receptor A1 [19]): 758 nM
- Fu [13]: > 80%
- T (Mus musculus [20]): 35.7 °C

Compound: O[C@@H]1[C@H](O)[C@@H](CCl)O[C@H]1n1cnc2c(N[C@H]3C[C@H]4CC[C@@H]3C4)ncnc21
- Ki [21]: 1240 nM
- Ki (Adenosine receptor A3 [22]): 1560 nM
- Ki (Adenosine receptor A2a [23]): 2050 nM
- Ki [1]: 432 nM
- Ki [24]: 484 nM
- Ki (Adenosine receptor A3 [25]): 355 nM

Compound: OC[C@H]1O[C@@H](n2cnc3c(NC4CCCC4)ncnc32)[C@H](O)[C@@H]1O [N6-CYCLOPENTYLADENOSINE]
- T (Mus musculus [26]): 32.4 °C

Compound: CCSC[C@H]1O[C@@H](n2cnc3c(NC(C4CCC4)C4CCC4)ncnc32)[C@H](O)[C@@H]1O
- inhibition (Adenosine receptor A2a [3]): 30%
- Ki [1]: 642 nM
- inhibition (Translocator protein): 90%

Compound: OC[C@@]12C[C@@H]1[C@@H](n1cnc3c(N[C@H]4C[C@H]5CC[C@@H]4C5)nc(Cl)nc31)[C@H](O)[C@@H]2O
- Ki (Adenosine receptor A1 [27]): 1.05 nM
- Ki [28]: 472 nM
- Activity (Mus musculus [29]): inactive
- Fu [4]: 7.68%
- Ki (Adenosine receptor A3 [22]): 574 nM
- Activity (Mus musculus [6]): 10
- Ki (Adenosine receptor A2a [23]): 4260 nM
- Activity (Mus musculus [30]): inactive
- Fu [7]: 6.59%
- Ki (Adenosine receptor A1 [31]): 23.6 nM
- Emax [8]: 62%
- Ratio Ki (Mus musculus [11]): 547
- T (Mus musculus [12]): 33.4 °C
- Ki (Adenosine receptor A3 [25]): 288 nM
- Activity (Mus musculus [32]): inactive
- Fu [13]: 9.75%
- inhibition [33]: 15%
- Ki [34]: 5740 nM
- Emax [14]: 104%

- Ki [35]: 8690 nM
- inhibition (Adenosine receptor A2a [3]): 15%
- Ki (Histamine H2 receptor): 6380 nM
- inhibition [36]: 49%
- inhibition [9]: 41%
Compound: CCOC(=O)[C@@]12C[C@@H]1[C@@H](n1cnc3c(NC(C4CC4)C4CC4)nc(Cl)nc31)[C@@H]1OC(C)(C)O[C@@H]12

Reference: ChEMBL document CHEMBL4368904 (J Med Chem, 2019)
